Data on 1 molecule can be found in patent US5545625A, “Preventing conversion of citrulline to argininosuccinate to limit pathological nitric oxide overproduction” (The Medical College of Wisconsin Research Foundation, Inc., priority 1994, dated 1996).

The test system of one test is nitric oxide synthase. In words: Nitric oxide synthase (NOS) activity of cytosol of rat aortic smooth muscle cells induced with LPS/interferon-gamma in presence of test agent (Example I). In kind it is cell-based. As to conditions: mithramycin 0.001 to 10 μg/ml with LPS 30 μg/ml plus interferon-gamma 50 ng/ml, 24 hours; FIG. 1. Here is the method: Aortic smooth muscle cells were cultured by explanting segments of the medial layer of aortae from adult male Fischer 344 rats. Aortae were removed aseptically and freed of adventitial and endothelial cells by scraping both the lumenal and abluminal surfaces. Medial fragments (1-2 mm) were allowed to attach to dry Primaria 25 cm^2 tissue culture flasks (Falcon; Oxnard, Calif.) which were kept moist with growth medium until cells emerged. Cultures were fed twice weekly with medium 199 containing 10% fetal bovine serum, 25 mM HEPES, 2 mM L-glutamine, 40 μg/ml endothelial cell growth supplement (Biomedical Technologies; Stoughton, Mass.) and 10 μg/ml gentamycin (GIBCO; Grand Island, N.Y.). When primary cultures became confluent, they were passaged by trypsinization and the explants were discarded. Cells in passage 10-15 were seeded at 20,000/well in 96-well plates. […]
Nitric oxide formation by smooth muscle cell cytosol was measured using a spectrophotometric kinetic microplate assay based on the increase in A405 accompanying the oxidation of Fe^2+ -myoglobin by nitric oxide. […] Assays were performed in triplicate with A405 recorded for each sample every 18 seconds for a period of 15 minutes. The rate of nitric oxide synthesis was calculated from the rate of increase in A405 by linear regression analysis. […]

Test [1] concerns human treated with interleukin-2. In words: Hypotension during interleukin-2 treatment for renal cell cancer (Examples VIII, XIV). It is filed as in vivo. The settings on record: interleukin-2 1×10^6 units, 5 days; mithramycin 25 μg/kg intravenously as pretreatment and at 24 hour intervals. The method, then:
A human is treated for renal cell cancer with interleukin-2 (1×10^6 units) for 5 days. By the fifth day, the patient's blood pressure falls to 80/55 mm Hg and the patient encounters nausea and extreme discomfort. Three weeks later, the patient returns for a second course of interleukin-2 treatment but is pretreated (before commencing interleukin-2 infusion) with mithramycin (25 μg/kg) and is treated at 24 hour intervals thereafter with 25 μg/kg of mithramycin. The mithramycin is administered intravenously in 50 ml saline over a 3 to 6 hour interval.
A human is treated for renal cell cancer with interleukin-2 (1×10^6) for 5 days. Simultaneously with commencing interleukin-2 infusion, L-thiocitrulline (10 mg/kg/day) is administered.

Test [2] relates to patient with Gram negative septicemia. In words: Blood pressure in septicemia patient given N^G -methyl-L-arginine plus test agent (Examples X, XVI). It is filed as in vivo, human. As to conditions: N^G -methyl-L-arginine 20 mg/kg bolus then 10 mg/kg/hr, plus mithramycin 25 μg/kg intravenously over 3-6 hours. Here is the method:
A patient with Gram negative septicemia and blood pressure of 80/55 mm Hg is administered N^G -methyl-L-arginine in a bolus dose of 20 mg/kg intravenously in saline and thereafter is given a sustained infusion of N^G -methyl-L-arginine at a dosage of 10 mg/kg/hr. Mithramycin (25 μg/kg) is given intravenously in 50 ml saline over 3-6 hours starting at the time of the bolus dose of N^G -methyl-L-arginine. […] The patient is released after 2 days.
A patient with a Gram negative septicemia and blood pressure of 80/55 mm Hg is administered N^G -methyl-L-arginine in a bolus dose of 20 mg/kg intravenously in saline and thereafter is given a sustained infusion of N^G -methyl-L-arginine at a dose of 10 mg/kg/hr. N^ω -Methyl-L-citrulline (40 mg/kg) is given intravenously in 50 ml saline over 3-6 hours starting at the time of the bolus dose of N^G -methyl-L-arginine.

For the molecule `COC(C(=O)C(O)C(C)O)C1Cc2cc3cc(OC4CC(OC5CC(O)C(O)C(C)O5)C(O)C(C)O4)c(C)c(O)c3c(O)c2C(=O)C1OC1CC(OC2CC(OC3CC(C)(O)C(O)C(C)O3)C(O)C(C)O2)C(O)C(C)O1` (stereo not drawn) [mithramycin], the “nitric oxide synthase activity” value with nitric oxide synthase is recorded as “blocks argininosuccinate synthetase activity as well as nitric oxide synthase activity”. Also, the development of hypotension result in test [1] is “hypotension does not develop”. Besides, the blood pressure entry in test [2] is “becomes normotensive within minutes of administration of the bolus dose of N^G -methyl-L-arginine and the normotensive state is sustained”.
